Reference: patent publication US20180200257A1, “METHODS FOR THE TREATMENT OF INFLAMMATORY DISORDERS” (Galapagos NV, priority 2015, published 2018)

Tested on: subjects with moderately to severely active RA who have an inadequate response to methotrexate (MTX)
Test: Study 2 (monotherapy) - Aspartate Aminotransferase (AST) levels
Format: in vivo, human
Text: Randomized, double-blind, placebo-controlled, multicenter, phase IIb dose finding study of Compound 1 (dosed as a [Compound 1:HCl:3H2O]) administered for 24 weeks as monotherapy to subjects with moderately to severely active rheumatoid arthritis who have an inadequate response to methotrexate alone
Double-blind, placebo-controlled, monotherapy study in subjects with moderately to severely active RA who have an inadequate response to methotrexate (MTX) (oral or parenteral).
280 subjects randomized to one of 3 doses of Compound 1 (dosed as a [Compound 1:HCl:3H2O]) or to placebo, given once daily (q.d.).
Twelve weeks of treatment with Compound 1 (dosed as a [Compound 1:HCl:3H2O]) at 50 mg, 100 mg, or 200 mg q.d.; or placebo. At Week 12, all subjects on placebo and the subjects on the 50 mg dose who have not achieved 20% improvement in swollen joint count (SJC66) and tender joint count (TJC68) will be assigned to 100 mg q.d. in a blinded fashion and will continue treatment until Week 24. Subjects in the other groups will maintain their randomized treatment until Week 24.
AST levels determination is available at Quest Diagnostics, Clinical Trials, Quest House, 125-135 Staines Road, Hounslow, Middlesex, TW3 3JB, United Kingdom under Catalogue n#84450. For Study 3, the data are obtained at BARC Europe, 3B,Industrie Park, Zwijnaarde, B-9052 Ghent, Belgium.
AST catalyzes the transamination of aspartate and 2-oxoglutarate, forming L-glutamate and oxalacetate. The oxalacetate is reduced to L-malate by malate dehydrogenase, whilst NADH is converted to NAD+, measured spectrophotometrically. Guidelines for the AST value have been issued by the association for Clinical Biochemistry and Laboratory Medicine, 130-132 Tooley Street LONDON SE1 2TU, united Kingdom, wherein the AST value should be below 34 U/l in Female and below 45 U/L in male. As disclosed in the respective study protocols for Study 1 or 2, at week 12, depending on the outcome of their treatment, the subjects may be continued in their initial treatment course, or reassigned to another treatment group in a randomized blinded fashion until week 24. Therefore, the number of subjects (N) for the period of either 12 weeks, or 24 weeks is provided to reflect this redistribution at week 12.
Subjects in the other groups maintained their randomized treatment until Week 24.

[1] = 12 weeks results, 50 mg q.d., week 1
[2] = 12 weeks results, 50 mg q.d., week 2
[3] = 12 weeks results, 50 mg q.d., week 4
[4] = 12 weeks results, 50 mg q.d., week 8
[5] = 12 weeks results, 50 mg q.d., week 12
[6] = 12 weeks results, 100 mg q.d., week 1
[7] = 12 weeks results, 100 mg q.d., week 2
[8] = 12 weeks results, 100 mg q.d., week 4
[9] = 12 weeks results, 100 mg q.d., week 8
[10] = 12 weeks results, 100 mg q.d., week 12
[11] = 12 weeks results, 200 mg q.d., week 1
[12] = 12 weeks results, 200 mg q.d., week 2
[13] = 12 weeks results, 200 mg q.d., week 4
[14] = 12 weeks results, 200 mg q.d., week 8
[15] = 12 weeks results, 200 mg q.d., week 12
[16] = 24 weeks results, 50 mg q.d. non responders switching to 100 mg q.d. at week 12, week 1
[17] = 24 weeks results, 50 mg q.d. non responders switching to 100 mg q.d. at week 12, week 2
[18] = 24 weeks results, 50 mg q.d. non responders switching to 100 mg q.d. at week 12, week 4
[19] = 24 weeks results, 50 mg q.d. non responders switching to 100 mg q.d. at week 12, week 8
[20] = 24 weeks results, 50 mg q.d. non responders switching to 100 mg q.d. at week 12, week 12
[21] = 24 weeks results, 50 mg q.d. non responders switching to 100 mg q.d. at week 12, week 16
[22] = 24 weeks results, 50 mg q.d. non responders switching to 100 mg q.d. at week 12, week 20
[23] = 24 weeks results, 50 mg q.d. non responders switching to 100 mg q.d. at week 12, week 24
[24] = 24 weeks results, 50 mg q.d. responders, week 1
[25] = 24 weeks results, 50 mg q.d. responders, week 2
[26] = 24 weeks results, 50 mg q.d. responders, week 4
[27] = 24 weeks results, 50 mg q.d. responders, week 8
[28] = 24 weeks results, 50 mg q.d. responders, week 12
[29] = 24 weeks results, 50 mg q.d. responders, week 16
[30] = 24 weeks results, 50 mg q.d. responders, week 20
[31] = 24 weeks results, 50 mg q.d. responders, week 24
[32] = 24 weeks results, 100 mg q.d., week 1
[33] = 24 weeks results, 100 mg q.d., week 2
[34] = 24 weeks results, 100 mg q.d., week 4
[35] = 24 weeks results, 100 mg q.d., week 8
[36] = 24 weeks results, 100 mg q.d., week 12
[37] = 24 weeks results, 100 mg q.d., week 16
[38] = 24 weeks results, 100 mg q.d., week 20
[39] = 24 weeks results, 100 mg q.d., week 24
[40] = 24 weeks results, 200 mg q.d., week 1
[41] = 24 weeks results, 200 mg q.d., week 2
[42] = 24 weeks results, 200 mg q.d., week 4
[43] = 24 weeks results, 200 mg q.d., week 8
[44] = 24 weeks results, 200 mg q.d., week 12
[45] = 24 weeks results, 200 mg q.d., week 16
[46] = 24 weeks results, 200 mg q.d., week 20
[47] = 24 weeks results, 200 mg q.d., week 24
[48] = 24 weeks results, placebo switching to 100 mg q.d. at week 12, week 16
[49] = 24 weeks results, placebo switching to 100 mg q.d. at week 12, week 20
[50] = 24 weeks results, placebo switching to 100 mg q.d. at week 12, week 24

SMILES: O=C(Nc1nc2cccc(-c3ccc(CN4CCS(=O)(=O)CC4)cc3)n2n1)C1CC1 [Compound 1, cyclopropanecarboxylic acid {5-[4-(1,1-dioxo-thiomorpholin-4-ylmethyl)-phenyl]-[1,2,4]triazolo[1,5-a]pyridin-2-yl}-amide]
- Study 2 - AST Mean CFB [1]: −1.8 IU/L
- Study 2 - AST Mean percentage CFB [1]: 0.54%
- Study 2 - AST Mean CFB [2]: −2.0 IU/L
- Study 2 - AST Mean percentage CFB [2]: 1.54%
- Study 2 - AST Mean CFB [3]: −1.7 IU/L
- Study 2 - AST Mean percentage CFB [3]: −0.21%
- Study 2 - AST Mean CFB [4]: −2.5 IU/L
- Study 2 - AST Mean percentage CFB [4]: −0.42%
- Study 2 - AST Mean CFB [5]: −0.2 IU/L
- Study 2 - AST Mean percentage CFB [5]: 2.69%
- Study 2 - AST Mean CFB [6]: 0.4 IU/L
- Study 2 - AST Mean percentage CFB [6]: 8.99%
- Study 2 - AST Mean CFB [7]: 1.3 IU/L
- Study 2 - AST Mean percentage CFB [7]: 9.02%
- Study 2 - AST Mean CFB [8]: 1.3 IU/L
- Study 2 - AST Mean percentage CFB [8]: 15.05%
- Study 2 - AST Mean CFB [9]: 1.9 IU/L
- Study 2 - AST Mean percentage CFB [9]: 18.05%
- Study 2 - AST Mean CFB [10]: 1.9 IU/L
- Study 2 - AST Mean percentage CFB [10]: 16.02%
- Study 2 - AST Mean CFB [11]: 0.1 IU/L
- Study 2 - AST Mean percentage CFB [11]: 7.59%
- Study 2 - AST Mean CFB [12]: 0.9 IU/L
- Study 2 - AST Mean percentage CFB [12]: 11.22%
- Study 2 - AST Mean CFB [13]: 0.8 IU/L
- Study 2 - AST Mean percentage CFB [13]: 13.13%
- Study 2 - AST Mean CFB [14]: 1.4 IU/L
- Study 2 - AST Mean percentage CFB [14]: 16.67%
- Study 2 - AST Mean CFB [15]: 1.1 IU/L
- Study 2 - AST Mean percentage CFB [15]: 15.21%
- Study 2 - AST Mean CFB [16]: −0.4 IU/L
- Study 2 - AST Mean percentage CFB [16]: −1.15%
- Study 2 - AST Mean CFB [17]: 0.3 IU/L
- Study 2 - AST Mean percentage CFB [17]: 2.57%
- Study 2 - AST Mean CFB [18]: 0.3 IU/L
- Study 2 - AST Mean percentage CFB [18]: 2.84%
- Study 2 - AST Mean CFB [19]: 0.0 IU/L
- Study 2 - AST Mean percentage CFB [19]: 1.89%
- Study 2 - AST Mean CFB [20]: 0.8 IU/L
- Study 2 - AST Mean percentage CFB [20]: 7.36%
- Study 2 - AST Mean CFB [21]: 0.8 IU/L
- Study 2 - AST Mean percentage CFB [21]: 5.82%
- Study 2 - AST Mean CFB [22]: 1.8 IU/L
- Study 2 - AST Mean percentage CFB [22]: 13.66%
- Study 2 - AST Mean CFB [23]: 2.6 IU/L
- Study 2 - AST Mean percentage CFB [23]: 17.42%
- Study 2 - AST Mean CFB [24]: −2.1 IU/L
- Study 2 - AST Mean percentage CFB [24]: 0.98%
- Study 2 - AST Mean CFB [25]: −2.6 IU/L
- Study 2 - AST Mean percentage CFB [25]: 1.26%
- Study 2 - AST Mean CFB [26]: −2.3 IU/L
- Study 2 - AST Mean percentage CFB [26]: −1.03%
- Study 2 - AST Mean CFB [27]: −3.2 IU/L
- Study 2 - AST Mean percentage CFB [27]: −1.06%
- Study 2 - AST Mean CFB [28]: −0.5 IU/L
- Study 2 - AST Mean percentage CFB [28]: 1.37%
- Study 2 - AST Mean CFB [29]: 0.5 IU/L
- Study 2 - AST Mean percentage CFB [29]: 8.81%
- Study 2 - AST Mean CFB [30]: 0.5 IU/L
- Study 2 - AST Mean percentage CFB [30]: 7.58%
- Study 2 - AST Mean CFB [31]: −0.5 IU/L
- Study 2 - AST Mean percentage CFB [31]: 5.14%
- Study 2 - AST Mean CFB [32]: 0.4 IU/L
- Study 2 - AST Mean percentage CFB [32]: 8.99%
- Study 2 - AST Mean CFB [33]: 1.3 IU/L
- Study 2 - AST Mean percentage CFB [33]: 9.02%
- Study 2 - AST Mean CFB [34]: 1.3 IU/L
- Study 2 - AST Mean percentage CFB [34]: 15.05%
- Study 2 - AST Mean CFB [35]: 1.9 IU/L
- Study 2 - AST Mean percentage CFB [35]: 18.05%
- Study 2 - AST Mean CFB [36]: 1.9 IU/L
- Study 2 - AST Mean percentage CFB [36]: 16.02%
- Study 2 - AST Mean CFB [37]: 5.4 IU/L
- Study 2 - AST Mean percentage CFB [37]: 23.15%
- Study 2 - AST Mean CFB [38]: 2.4 IU/L
- Study 2 - AST Mean percentage CFB [38]: 23.16%
- Study 2 - AST Mean CFB [39]: 1.5 IU/L
- Study 2 - AST Mean percentage CFB [39]: 15.75%
- Study 2 - AST Mean CFB [40]: 0.1 IU/L
- Study 2 - AST Mean percentage CFB [40]: 7.59%
- Study 2 - AST Mean CFB [41]: 0.9 IU/L
- Study 2 - AST Mean percentage CFB [41]: 11.22%
- Study 2 - AST Mean CFB [42]: 0.8 IU/L
- Study 2 - AST Mean percentage CFB [42]: 13.13%
- Study 2 - AST Mean CFB [43]: 1.4 IU/L
- Study 2 - AST Mean percentage CFB [43]: 16.67%
- Study 2 - AST Mean CFB [44]: 1.1 IU/L
- Study 2 - AST Mean percentage CFB [44]: 15.21%
- Study 2 - AST Mean CFB [45]: 2.2 IU/L
- Study 2 - AST Mean percentage CFB [45]: 21.14%
- Study 2 - AST Mean CFB [46]: 1.7 IU/L
- Study 2 - AST Mean percentage CFB [46]: 17.43%
- Study 2 - AST Mean CFB [47]: 1.4 IU/L
- Study 2 - AST Mean percentage CFB [47]: 17.74%
- Study 2 - AST Mean CFB [48]: 0.9 IU/L
- Study 2 - AST Mean percentage CFB [48]: 8.60%
- Study 2 - AST Mean CFB [49]: 2.2 IU/L
- Study 2 - AST Mean percentage CFB [49]: 16.10%
- Study 2 - AST Mean CFB [50]: 2.1 IU/L
- Study 2 - AST Mean percentage CFB [50]: 13.64%
